Test results as given in PubChem BioAssay (NCI).
Values joined by “and” are separate entries in the source; they are usually repeats but may differ in a detail not shown here. Equal values may be shown once.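 A five-concentration, 48-hour dose response in 96-well plates underlies each endpoint, interpolated linearly between surrounding concentrations. At the GI50, growth is halved. TGI is the concentration that stops growth completely.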

test system: SF-539 CNS; assay: growth of human tumour cells (NCI), 48 h

SMILES | TGI [µM]
O=C1/C(=C\c2cccc(Oc3ccccc3)c2)S(=O)(=O)C(c2ccccc2)N1c1cccc(Cl)c1 (stereo not drawn) | > 100
CCOC(=O)CCC1(CCC(=O)OCC)CCCCCCCCC(CCC(=O)OCC)(CCC(=O)OCC)C(=O)C1=O | > 100
NCCCNCCCCN1CCOC1=O | > 100
COCn1cnc2c(=O)nc(SC)n(-c3ccccc3)c21 | > 100

test system: UO-31 renal; assay: growth of human tumour cells (NCI), 48 h

SMILES | TGI | GI50 [µM]
COc1ccc(CNc2nc(NC3CCCCC3)nc(NC3CCCCC3)n2)cc1 | 67.2 µM | –
Cc1ccc(NC(=O)C(=O)C2C(=O)NC(=O)NC2=O)cc1C | > 100 µM | –
S=C1NCCN1C(=S)Nc1ccccc1 | > 100 µM | –
CCOC(=O)c1ccc(-c2ccc(Cl)cc2)[nH]1 | > 10 µM | –
CC1CC(Nc2ccc(Br)cc2)N(C(=O)c2ccc(Br)cc2)O1 (stereo not drawn) | > 10 µM | –
COc1cc2c(cc1O)NC(=O)[C@@H]1CCCN1C2=O | > 100 µM | –
O=c1[nH]c2nc3ccccc3c(=O)n2/c1=C/c1cccs1 | > 100 µM | –
Cc1cc(C)nc(NC(P(=O)(O)O)P(=O)(O)O)n1 | > 100 µM | –
COc1ccc(/C=N/N=C(\N)NO)c(OC)c1C | 31.7 µM | –
CCCC(=O)[O-].CCCC(=O)[O-].NCCN.NCCN.[Co+3].[O-][Cl+3]([O-])([O-])[O-] | > 100 µM | –
COc1cc(Nc2nc3cc(C(F)(F)F)ccc3nc2C(=O)O)cc(OC)c1OC | > 100 µM | –
COc1cccc(-c2nc(-c3cnccn3)n(C/C=C/c3ccccc3)n2)c1 | > 10 µM | –
CC1(C)O[C@H]2OC(CO)C(N=[N+]=[N-])[C@H]2O1 (stereo partly drawn) | > 100 µM | –
C=C1CC[C@H]2C(=O)OC(c3ccoc3)C[C@]2(C)C/C=C\C=C/1C(=O)OC (stereo partly drawn) | > 25 µM | –
CC(NC(=O)Cc1ccccc1)NC(=O)C(C)C(=O)NCc1ccccc1 (stereo not drawn) | > 100 µM | –
CC(=O)OCC1OC(n2c(C)c(N=Nc3ccc(Cl)cc3)c(C)c(C#N)c2=S)C(OC(C)=O)C(OC(C)=O)C1OC(C)=O (stereo not drawn) | > 100 µM | –
CCCCC1Cc2cc(O)ccc2-c2nc3cc(O)ccc3n21 (stereo not drawn) (tested in a mixture with another compound) | 28.5 µM | –
CC(NC(=O)c1c(O)[nH]c(=S)[nH]c1=O)c1ccc([N+](=O)[O-])cc1 (stereo not drawn) | > 100 µM | –
CC(=O)c1c(N=[N+]=[N-])c2cccc3c2n(c1=O)CCC3 | 55.6 µM | –

SMILES | TGI | GI50 [µM]
NC1(CCNC(=O)c2ccccc2)CCN(C(=O)c2ccccc2)CC1 | > 100 µM | –
Cn1nnnc1SC(F)(F)c1nc2ccccc2o1 | > 100 µM | –
COC(=O)N[C@H](C(=O)NC(OCc1ccccc1)C1COC(C)(C)O1)C(C)O[Si](C)(C)C(C)(C)C (stereo partly drawn) | > 100 µM | –
COc1ccc(C2c3cc4c(cc3OC(N3CCOCC3)C2C)OCO4)cc1 (stereo not drawn) | > 100 µM | –
CC(=O)O[C@]12CCCCCC1C1(O)C(O)CCCCC12 (stereo partly drawn) | > 100 µM | –
C/C=C\C(CC(=O)NCC(=O)c1c[nH]c2ccccc12)CC(=O)OC (stereo not drawn) | > 100 µM | –
CC(=O)c1ccc2c(c1)C(=O)c1sc(C(C)=O)cc1C2=O | 2.15 µM and 2.69 µM | 1.4
O=Cc1ccc(-c2ccc(-c3ccc(CO)s3)o2)s1 | > 71.3 µM | –
CCOP(=O)(OCC)/C(C#N)=C/c1ccc(-c2cc(C(F)(F)F)cc(C(F)(F)F)c2)o1 | 34.9 µM | –
Cc1n[n+](Cc2ccccc2)c2sc(N)nn12 | > 100 µM | –
CCOC(=O)c1c(OCC)[nH]c(=O)c(C(c2cccs2)c2c(O)c(C(=O)OCC)c(OCC)[nH]c2=O)c1O | 26.7 µM | –
CN1CCN(/C(N)=C(\C#N)C(=O)Nc2ccc(Cl)cc2)CC1 | > 100 µM | –
COc1cc2nc(-c3cccs3)nc(Cl)c2cc1OC | > 100 µM | –
O=P1(Cc2ccccc2)N(Cc2ccccc2)[C@@H]2CCCC[C@H]2N1Cc1ccccc1 | 19.7 µM | –
CN1CCCOC(c2ccc(Cl)cc2)O1 (stereo not drawn) | > 100 µM | –
O=C1/C(=C\c2cccc(Oc3ccccc3)c2)S(=O)(=O)C(c2ccccc2)N1c1cccc(Cl)c1 (stereo not drawn) | > 100 µM | –
NCCCNCCCCN1CCOC1=O | > 100 µM | –
O=C(Cn1c2ccc(Br)cc2c2nc3ccccc3nc21)NNC(=S)NC1CCCCC1 | 22.3 µM | –
COCn1cnc2c(=O)nc(SC)n(-c3ccccc3)c21 | > 100 µM | –

test system: HL-60(TB) leukemia; assay: growth of human tumour cells (NCI), 48 h

SMILES | TGI [µM]
COc1ccc(CNc2nc(NC3CCCCC3)nc(NC3CCCCC3)n2)cc1 | > 100
Cc1ccc(NC(=O)C(=O)C2C(=O)NC(=O)NC2=O)cc1C | > 100
S=C1NCCN1C(=S)Nc1ccccc1 | > 100
CCOC(=O)c1ccc(-c2ccc(Cl)cc2)[nH]1 | > 10
CC1CC(Nc2ccc(Br)cc2)N(C(=O)c2ccc(Br)cc2)O1 (stereo not drawn) | > 10
COc1ccc2nc(-c3ccccc3)c(=O)[nH]c2c1 | > 100
O=c1[nH]c2nc3ccccc3c(=O)n2/c1=C/c1cccs1 | > 100
COc1cc(Nc2nc3cc(C(F)(F)F)ccc3nc2C(=O)O)cc(OC)c1OC | > 100
NCCCN(CCCN)CCc1cn(C(=O)c2ccccc2)cn1 | 10.8
CC1(C)O[C@H]2OC(CO)C(N=[N+]=[N-])[C@H]2O1 (stereo partly drawn) | > 100
CC(NC(=O)Cc1ccccc1)NC(=O)C(C)C(=O)NCc1ccccc1 (stereo not drawn) | > 100
CC(=O)OCC1OC(n2c(C)c(N=Nc3ccc(Cl)cc3)c(C)c(C#N)c2=S)C(OC(C)=O)C(OC(C)=O)C1OC(C)=O (stereo not drawn) | > 100
CCCCC1Cc2cc(O)ccc2-c2nc3cc(O)ccc3n21 (stereo not drawn) (tested in a mixture with another compound) | 41.9
CC(NC(=O)c1c(O)[nH]c(=S)[nH]c1=O)c1ccc([N+](=O)[O-])cc1 (stereo not drawn) | > 100
COC(=O)N[C@H](C(=O)NC(OCc1ccccc1)C1COC(C)(C)O1)C(C)O[Si](C)(C)C(C)(C)C (stereo partly drawn) | > 100
COc1ccc(C2c3cc4c(cc3OC(N3CCOCC3)C2C)OCO4)cc1 (stereo not drawn) | 91.2
CC(=O)O[C@]12CCCCCC1C1(O)C(O)CCCCC12 (stereo partly drawn) | > 100
CC(=O)c1ccc2c(c1)C(=O)c1sc(C(C)=O)cc1C2=O | 50
O=Cc1ccc(-c2ccc(-c3ccc(CO)s3)o2)s1 | > 22.3
CCOP(=O)(OCC)/C(C#N)=C/c1ccc(-c2cc(C(F)(F)F)cc(C(F)(F)F)c2)o1 | 14.3
CN1CCc2c(sc3[nH]c(=S)[nH]c(=S)c23)C1 | > 100
CCOC(=O)c1c(OCC)[nH]c(=O)c(C(c2cccs2)c2c(O)c(C(=O)OCC)c(OCC)[nH]c2=O)c1O | 40.7
COc1cc2nc(-c3cccs3)nc(Cl)c2cc1OC | > 100
O=P1(Cc2ccccc2)N(Cc2ccccc2)[C@@H]2CCCC[C@H]2N1Cc1ccccc1 | 19.8
NCCCNCCCCN1CCOC1=O | > 100
COCn1cnc2c(=O)nc(SC)n(-c3ccccc3)c21 | > 100

test system: UACC-62 melanoma; assay: growth of human tumour cells (NCI), 48 h

SMILES | TGI [µM]
COc1ccc(CNc2nc(NC3CCCCC3)nc(NC3CCCCC3)n2)cc1 | 50.9
Cc1ccc(NC(=O)C(=O)C2C(=O)NC(=O)NC2=O)cc1C | > 100
S=C1NCCN1C(=S)Nc1ccccc1 | > 100
CCOC(=O)c1ccc(-c2ccc(Cl)cc2)[nH]1 | > 10
COc1cc2c(cc1O)NC(=O)[C@@H]1CCCN1C2=O | > 100
COc1ccc2nc(-c3ccccc3)c(=O)[nH]c2c1 | > 100
O=c1[nH]c2nc3ccccc3c(=O)n2/c1=C/c1cccs1 | > 100
Cc1cc(C)nc(NC(P(=O)(O)O)P(=O)(O)O)n1 | > 100
COc1ccc(/C=N/N=C(\N)NO)c(OC)c1C | > 100
CCCC(=O)[O-].CCCC(=O)[O-].NCCN.NCCN.[Co+3].[O-][Cl+3]([O-])([O-])[O-] | > 100
COc1cc(Nc2nc3cc(C(F)(F)F)ccc3nc2C(=O)O)cc(OC)c1OC | > 100
NCCCN(CCCN)CCc1cn(C(=O)c2ccccc2)cn1 | 23
COc1cccc(-c2nc(-c3cnccn3)n(C/C=C/c3ccccc3)n2)c1 | > 10
CC1(C)O[C@H]2OC(CO)C(N=[N+]=[N-])[C@H]2O1 (stereo partly drawn) | > 100
C=C1CC[C@H]2C(=O)OC(c3ccoc3)C[C@]2(C)C/C=C\C=C/1C(=O)OC (stereo partly drawn) | > 25
CC(NC(=O)Cc1ccccc1)NC(=O)C(C)C(=O)NCc1ccccc1 (stereo not drawn) | > 100
CC(=O)OCC1OC(n2c(C)c(N=Nc3ccc(Cl)cc3)c(C)c(C#N)c2=S)C(OC(C)=O)C(OC(C)=O)C1OC(C)=O (stereo not drawn) | > 100
CCCCC1Cc2cc(O)ccc2-c2nc3cc(O)ccc3n21 (stereo not drawn) (tested in a mixture with another compound) | 25.5
CC(NC(=O)c1c(O)[nH]c(=S)[nH]c1=O)c1ccc([N+](=O)[O-])cc1 (stereo not drawn) | > 100
CC(=O)c1c(N=[N+]=[N-])c2cccc3c2n(c1=O)CCC3 | 35.1

SMILES | TGI [µM]
NC1(CCNC(=O)c2ccccc2)CCN(C(=O)c2ccccc2)CC1 | > 100
Cn1nnnc1SC(F)(F)c1nc2ccccc2o1 | > 100
COc1ccc(C2c3cc4c(cc3OC(N3CCOCC3)C2C)OCO4)cc1 (stereo not drawn) | > 95.6
CC(=O)O[C@]12CCCCCC1C1(O)C(O)CCCCC12 (stereo partly drawn) | > 100
C/C=C\C(CC(=O)NCC(=O)c1c[nH]c2ccccc12)CC(=O)OC (stereo not drawn) | > 100
O=Cc1ccc(-c2ccc(-c3ccc(CO)s3)o2)s1 | 6.03
CN1CCc2c(sc3[nH]c(=S)[nH]c(=S)c23)C1 | > 100
Cc1n[n+](Cc2ccccc2)c2sc(N)nn12 | 38.5
CCOC(=O)c1c(OCC)[nH]c(=O)c(C(c2cccs2)c2c(O)c(C(=O)OCC)c(OCC)[nH]c2=O)c1O | 28.6
CC(=O)Nc1c(C(=N)C#N)ncn1CCO | > 100
CN1CCN(/C(N)=C(\C#N)C(=O)Nc2ccc(Cl)cc2)CC1 | 58.9
COc1cc2nc(-c3cccs3)nc(Cl)c2cc1OC | > 100
O=P1(Cc2ccccc2)N(Cc2ccccc2)[C@@H]2CCCC[C@H]2N1Cc1ccccc1 | 20.6
CN1CCCOC(c2ccc(Cl)cc2)O1 (stereo not drawn) | > 100
O=C1/C(=C\c2cccc(Oc3ccccc3)c2)S(=O)(=O)C(c2ccccc2)N1c1cccc(Cl)c1 (stereo not drawn) | > 100
CCOC(=O)CCC1(CCC(=O)OCC)CCCCCCCCC(CCC(=O)OCC)(CCC(=O)OCC)C(=O)C1=O | > 100
NCCCNCCCCN1CCOC1=O | > 100
O=C(Cn1c2ccc(Br)cc2c2nc3ccccc3nc21)NNC(=S)NC1CCCCC1 | 43.2
COCn1cnc2c(=O)nc(SC)n(-c3ccccc3)c21 | > 100
